# Tests used:
# [1] = tested on: CD4+ T cells from ART-suppressed people with HIV; test: Cell viability (Cell Titer Glo); format: cell-based, human; settings: 72 hours, doses that activated HIV RNA
# Method: Supplementary file ppat.1012874.s011.png: S8 Fig Effect of C-233 on cell viability. CD4^+ T cells from ART-suppressed people with HIV were treated with the indicated C-233 concentrations for 72 hours. Cell viability was assessed using Promega Cell Titer Glo according to manufacturer’s instructions. Bars indicate the means and lines indicate standard deviation from 4 donors, each tested with 8 replicates. (PNG)
# CD69 on CD4+ T cells = test: CD69 expression levels in rhesus blood (flow cytometry); format: in vivo, rhesus macaque
# Method: CD69 protein expression levels in whole blood were measured using flow cytometry. Samples, collected in K2EDTA tubes, were surface stained with anti-human monoclonal antibodies against markers CD3 (UCHT1), CD4 (SK3), and activation marker CD69 (FN50) for 30 minutes at RT. Red blood cells were lysed and cells were fixed (BD Lyse/Fix buffer) according to the manufacturer’s instructions. All data were acquired on an LSR II (BD Biosciences) and were analyzed using FlowJo software.
# [2] = Plasma PK in rhesus macaques; format: in vivo, rhesus macaque; settings: 0.03, 0.1, 0.3, and 1 mg/kg, slow IV infusion
# Method: Male rhesus macaque monkeys (young adult to adult) were sourced from the Covance stock colony for conduct of in vivo studies at Covance Laboratories Inc. (Madison, Wisconsin, USA). Monkeys were administered a single dose of vehicle control (n = 3), 0.03, 0.1, 0.3, or 1 mg/kg of C-232A (n = 1) by intravenous infusion over 30 minutes using a sentinel approach. An additional 2 male monkeys were administered 0.3 mg/kg C232A after it was determined that this was the maximum tolerated dose level. Blood samples were collected through 24 hours postdose. Samples for PK (for measurement of C-232A concentration) and cytokine analysis were processed to plasma and shipped to Gilead Sciences. Activation of CD4^+ T cells was assessed by measuring CD69 expression levels in whole blood by flow cytometry (Covance Laboratories). Samples for clinical pathology were analyzed at Covance Laboratories for hematology, coagulation, and clinical chemistry panels. […] Tissues were then evaluated independently (Experimental Pathology Laboratories, Inc).
# Rat and rhesus plasma samples (20 µL aliquot of each) were treated with 100 µL acetonitrile containing a generic internal small-molecule standard. […] The descriptive PK parameters were analyzed using noncompartmental analysis with Phoenix WinNonlin software (version 8.2, Certara USA, Inc.). […]
# PKC-β2 = PKC-β2 (Homo sapiens, UniProt P05771); test: PKC isoform translocation in A549-tGFP cells; format: cell-based; set-up: host or cells: A549; settings: 60 minutes
# Method: (§1) Using these findings we embarked on new designs for DAG-lactones with additional substituents from the ester moiety in combination with a few olefin substituents. A description of this effort is reported elsewhere.
# (§2) Cellular translocation of PKC isoforms upon activation was determined in 8 A549 cell lines, each expressing a single PKC isoform fused to tGFP (PhenoVista Biosciences). Cells were plated in 384-well plates (80 μL/well) at 10^5 cells/mL in RPMI with 10% FBS and rested overnight. PKC agonist(s) were serially diluted at 1:3 steps in DMSO and added to the cells. After 60 minutes in an incubator at 37 °C, 5% CO2, cells were stained with Hoechst-33342 and fixed with 2% paraformaldehyde for 30 minutes at 4 °C. Cells were then stained with wheat germ agglutinin conjugated to AlexaFluor647 (WGA-647) for 10 minutes at 4 °C, washed to remove excess dye and imaged with Cellomics Array Scan (Thermo Fisher) at room temperature (RT). Images were analyzed using Cellomics automated image analysis algorithm. Plasma membrane translocation was quantified using the ratio between the average fluorescence in the areas at the cell edge defined by WGA-647 and the cytoplasm region.
# PKC-β1 = PKC-β1 (Homo sapiens, UniProt P05771); test: PKC isoform translocation in A549-tGFP cells; format: cell-based; set-up: host or cells: A549; settings: 60 minutes
# Method: as §1, §2
# PKC-γ = PKC-γ (Homo sapiens, UniProt P05129); test: PKC isoform translocation in A549-tGFP cells; format: cell-based; set-up: host or cells: A549; settings: 60 minutes
# Method: as §1, §2
# PKC-θ = PKC-θ (Homo sapiens, UniProt Q04759); test: Immunofluorescence of endogenous PKC in Jurkat cells; format: cell-based; settings: 30 minutes
# Method: Cells were cultured in RPMI medium supplemented with 10% heat-inactivated FBS and penicillin-streptomycin. For treatment, cells were incubated in either DMSO or C-232A for 30 minutes at 37 °C. Cells were fixed in ice-cold methanol, washed, and blocked with 2% BSA for 60 minutes at RT. Blocked cells were stained with either a 5 μg/mL primary PKC-θ antibody (R&D Systems, catalog MAB4368) or a 1:100 primary PKC-α antibody (R&D Systems, catalog MAB5340SP) in PBS with 1% BSA at 22 °C for 90 minutes. Donkey anti-mouse IgG antibody conjugated with Alexa Fluor 647 (Thermo Fisher Scientific, catalog A-31571) at 2 μg/mL and goat anti-rat IgG H&L antibody conjugated with Alexa Fluor 488 (Abcam, catalog ab150157) were used as secondary antibodies, respectively, in PBS with 1% BSA at 22 °C for 60 minutes. After immunostaining, the cell suspension was mixed (1:1) with ProLong Gold antifade reagent containing DAPI (Life Technologies, catalog P36935) and 5 μL of the mix was applied onto a microscope slide, covered with a coverslip, and cured overnight in the dark at RT. Samples were imaged with a Leica SP8 confocal microscope. Image analysis was performed using ImageJ software.
# [3] = In vivo monkey study: tolerability, clinical pathology, histopathology; set-up: species or system rhesus macaque; settings: male, rhesus monkey, in vivo; single IV infusion; read-out: maximum tolerated dose
# Method: (§3) Male rhesus macaque monkeys (young adult to adult) were sourced from the Covance stock colony for conduct of in vivo studies at Covance Laboratories Inc. (Madison, Wisconsin, USA). Monkeys were administered a single dose of vehicle control (n = 3), 0.03, 0.1, 0.3, or 1 mg/kg of C-232A (n = 1) by intravenous infusion over 30 minutes using a sentinel approach. An additional 2 male monkeys were administered 0.3 mg/kg C232A after it was determined that this was the maximum tolerated dose level. Blood samples were collected through 24 hours postdose. Samples for PK (for measurement of C-232A concentration) and cytokine analysis were processed to plasma and shipped to Gilead Sciences. Activation of CD4^+ T cells was assessed by measuring CD69 expression levels in whole blood by flow cytometry (Covance Laboratories). Samples for clinical pathology were analyzed at Covance Laboratories for hematology, coagulation, and clinical chemistry panels. At unscheduled necropsy (1 mg/kg C-232A), tissues were preserved in 10% neutral-buffered formalin, embedded in paraffin, and processed to slides for staining with hematoxylin and eosin. Tissues were then evaluated independently (Experimental Pathology Laboratories, Inc).
# rhesus macaques = test: as above; set-up: species or system rhesus macaque
# Method: as §3
# Sequence of PKC-θ (Q04759 whole entry): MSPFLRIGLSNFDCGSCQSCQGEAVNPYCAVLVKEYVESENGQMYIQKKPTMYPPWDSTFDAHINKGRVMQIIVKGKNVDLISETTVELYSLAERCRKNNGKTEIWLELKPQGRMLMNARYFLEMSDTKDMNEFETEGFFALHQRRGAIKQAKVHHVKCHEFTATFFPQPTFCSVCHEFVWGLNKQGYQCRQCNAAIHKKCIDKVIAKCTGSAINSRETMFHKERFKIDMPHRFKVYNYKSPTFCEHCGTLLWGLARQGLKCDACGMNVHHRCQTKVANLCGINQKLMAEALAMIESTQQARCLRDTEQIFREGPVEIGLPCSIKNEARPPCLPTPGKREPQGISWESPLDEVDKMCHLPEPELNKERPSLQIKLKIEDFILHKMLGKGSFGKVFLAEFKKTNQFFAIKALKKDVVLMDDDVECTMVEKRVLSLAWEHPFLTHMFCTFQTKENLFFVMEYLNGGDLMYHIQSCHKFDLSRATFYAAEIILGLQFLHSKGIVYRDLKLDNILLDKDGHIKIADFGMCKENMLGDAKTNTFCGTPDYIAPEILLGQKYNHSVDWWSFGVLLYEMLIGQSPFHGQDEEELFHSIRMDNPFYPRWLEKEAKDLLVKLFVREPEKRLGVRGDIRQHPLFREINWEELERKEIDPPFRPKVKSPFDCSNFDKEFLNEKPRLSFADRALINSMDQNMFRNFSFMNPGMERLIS
# Sequence of PKC-β2 (P05771 1-673 isoform P05771-2): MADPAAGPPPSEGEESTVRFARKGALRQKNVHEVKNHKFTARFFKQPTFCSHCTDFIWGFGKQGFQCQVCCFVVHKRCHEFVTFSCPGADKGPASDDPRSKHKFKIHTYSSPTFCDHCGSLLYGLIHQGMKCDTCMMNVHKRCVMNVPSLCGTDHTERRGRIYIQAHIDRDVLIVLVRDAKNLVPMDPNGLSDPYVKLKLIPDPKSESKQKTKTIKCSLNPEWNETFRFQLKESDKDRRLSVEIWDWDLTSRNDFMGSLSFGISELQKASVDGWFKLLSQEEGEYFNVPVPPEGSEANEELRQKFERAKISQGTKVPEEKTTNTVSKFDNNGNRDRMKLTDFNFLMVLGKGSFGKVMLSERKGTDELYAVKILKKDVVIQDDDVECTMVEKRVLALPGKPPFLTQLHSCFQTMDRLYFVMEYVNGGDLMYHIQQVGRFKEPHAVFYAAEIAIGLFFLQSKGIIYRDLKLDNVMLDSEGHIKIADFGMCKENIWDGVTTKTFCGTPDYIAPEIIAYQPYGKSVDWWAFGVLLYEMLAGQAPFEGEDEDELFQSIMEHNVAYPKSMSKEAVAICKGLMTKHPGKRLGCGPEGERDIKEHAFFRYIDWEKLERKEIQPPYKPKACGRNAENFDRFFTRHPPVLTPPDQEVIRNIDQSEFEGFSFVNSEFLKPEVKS
# Sequence of PKC-β1 (P05771 whole entry, canonical isoform): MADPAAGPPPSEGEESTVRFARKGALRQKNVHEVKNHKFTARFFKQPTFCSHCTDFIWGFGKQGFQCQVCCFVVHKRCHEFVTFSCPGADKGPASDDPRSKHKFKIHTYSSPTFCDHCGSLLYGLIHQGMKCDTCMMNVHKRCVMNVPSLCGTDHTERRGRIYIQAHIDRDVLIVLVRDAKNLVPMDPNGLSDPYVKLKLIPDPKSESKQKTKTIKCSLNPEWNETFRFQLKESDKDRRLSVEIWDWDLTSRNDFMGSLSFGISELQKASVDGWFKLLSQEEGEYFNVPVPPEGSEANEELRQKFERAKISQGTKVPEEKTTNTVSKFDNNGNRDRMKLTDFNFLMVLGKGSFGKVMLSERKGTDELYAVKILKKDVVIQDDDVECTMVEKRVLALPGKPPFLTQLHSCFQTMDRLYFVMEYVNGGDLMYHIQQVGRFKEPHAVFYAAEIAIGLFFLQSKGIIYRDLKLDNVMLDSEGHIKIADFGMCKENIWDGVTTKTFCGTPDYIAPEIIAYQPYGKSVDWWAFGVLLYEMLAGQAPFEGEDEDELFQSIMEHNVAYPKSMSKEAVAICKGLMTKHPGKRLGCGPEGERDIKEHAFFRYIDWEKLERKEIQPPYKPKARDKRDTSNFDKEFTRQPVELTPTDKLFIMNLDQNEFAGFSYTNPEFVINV
Compound,cell viability [1],"expression of CD69 on CD4+ T cells (CD69 on CD4+ T cells; 1 mg/kg, at peak) [%]","time of peak CD69 expression postdose (CD69 on CD4+ T cells; rhesus monkey, in vivo) [h]",PK plasma profile [2],EC50 (PKC-β2) [µM],EC50 (PKC-β1) [µM],EC50 (PKC-γ) [µM],translocation of endogenous PKC-θ from cytoplasm to cell edge (PKC-θ),MTD [3] [mg/kg],circulating fibrinogen (rhesus macaques; 1 mg/kg),coagulation times (rhesus macaques; 1 mg/kg),histopathology (rhesus macaques; 1 mg/kg),"outcome (severe clinical signs) (rhesus macaques; 1 mg/kg, single IV infusion, 1 monkey)","tolerability (rhesus macaques; 0.03, 0.1, and 0.3 mg/kg, single IV infusion)",circulating platelet counts (rhesus macaques; higher doses),mean platelet volume (rhesus macaques; higher doses) [fL]
Cc1ccc(C#Cc2ccc(C(=O)OCC3(CO)Cc4c(-c5ccccc5)ccnc4O3)cc2)cc1 (stereo not shown) [C-233],without impairing viability,,,,,,,,,,,,,,,
Cc1ccc(C#Cc2ccc3oc(CC(C)(C)C(=O)OCC4(CO)CC(=CCC(CC(C)C)CC(C)C)C(=O)O4)cc3c2)cc1 (stereo not shown) [C-232A],,59,4 to 8,dose-dependent C-232A PK plasma profiles,2.26,3.28,11.5,efficient translocation of endogenous PKC-θ to the plasmalemma,0.3,decreased,prolonged,hemorrhage in the lung and adrenal gland,euthanized 8 hours postdose,well tolerated,"< 100,000 platelets/µL",> 15

# Reference: PMC11801715, “Activating PKC-ε induces HIV expression with improved tolerability” (PLOS Pathogens, 2025)
